Measured values taken from patent US9156838B2, “Fused heterocyclic compound” (Sumitomo Chemical Company, Limited, priority 2012, dated 2015).

System: Blattella germanica
Test: Test Example 9: treated filter paper with sucrose bait, Blattella germanica male imagoes
Assay type: in vivo
Settings: 500 ppm, 0.7 ml on filter paper, after 6 days
Experimental: The formulations of Compounds 3 and 10 as obtained in Formulation Example 5 were diluted with water, so as to have a concentration of the active ingredient of 500 ppm, to prepare a test drug solution.
A filter paper having a diameter of 5.5 cm was spread on the bottom of a polyethylene cup having the same diameter and 0.7 ml of the test drug solution was added dropwise onto the filter paper, and 30 mg of sucrose was uniformly placed as bait. Into the polyethylene cup, 2 male imagoes of Blattella germanica were released, and the cup was sealed with a lid. After 6 days, the life and death of Blattella germanica was examined, and the death rate was calculated.

Row | SMILES | death rate [%]
1 | CCS(=O)(=O)c1cc(SC(F)(F)F)ccc1-c1nc2cc(C(F)(F)C(F)(F)F)cnc2n1C [Compound 10, 2-(2-ethylsulfonyl-4-trifluoromethylsulfanylphenyl)3-methyl-6-pentafluoroethyl-3H-imidazo[4,5-b]pyridine] | 100
2 | CCS(=O)(=O)c1cc([S+]([O-])C(F)(F)F)ccc1-c1nc2cc(C(F)(F)F)cnc2n1C (centres unmarked) [Compound 3] | 100
